Experimental data as given in patent publication US10945978B2, “Treatment and diagnosis of melanoma” (The Rockefeller University, priority 2012, dated 2021).
Entries after “also recorded” stand apart in the source; their conditions may differ.

How the values were obtained:
ApoE = ApoE expression by qRT-PCR in human melanoma cells; format: cell-based; settings: MeWo cells, 500 nM, 1 μM or 2 μM, 48 hours
Method: Total RNA was extracted from various cell lines using the miRvana kit (AM1560, Applied Biosystems, Austin, Tex.). The expression levels of mature miRNAs were quantified using the Taqman miRNA expression assay (4427975-0002228, Applied Biosystems). RNU44 was used as an endogenous control for normalization. For mRNA expression analyses, 600 ng of total RNA was reverse transcribed using the cDNA First-Strand Synthesis Kit (18080-051, Invitrogen), and roughly 200 ng of the resulting cDNA was then mixed with SYBR green PCR Master Mix (4309155, Applied Biosystems) and the appropriate primers. Each reaction was performed in quadruplicate, and mRNA expression was quantified by performing real-time PCR amplification using an ABI Prism 7900HT Real-Time PCR System (Applied Biosystems). GAPDH was used as an endogenous control for normalization. The following primers were used: […]
RNA was extracted from whole cell lysates using the Total RNA Purification Kit (17200, Norgen, Thorold, Canada). 600 ng of total RNA was then reverse transcribed into cDNA using the cDNA First-Strand Synthesis Kit (18080-051, Invitrogen), and quantitative real-time PCR amplification was performed as previously described (Pencheva et al., 2012) using an ABI Prism 7900HT Real-Time PCR System (Applied Biosystems, Austin, Tex.). Each PCR reaction was carried out in quadruplicates. Gene expression was normalized to GAPDH, which was used as an endogenous control.
For every sample, 600 ng of RNA was reverse transcribed into cDNA using the cDNA First-Strand Synthesis kit (Invitrogen). Approximately 200 ng of cDNA was mixed with SYBR® green PCR Master Mix and the corresponding forward and reverse primers specific for detection of human ApoE. Each reaction was carried out in quadruplicates, and ApoE mRNA expression levels were measured by quantitative real-time PCR amplification using an ABI Prism 7900HT Real-Time PCR System (Applied Biosystems). The relative ApoE expression was determined using the ΔΔCt method. GAPDH was used as an endogenous control for normalization purposes.

[1] = system: MeWo, MeWo-LM2, HT-144, SK-Mel-2 and SK-Mel-334.2 human melanoma cells; assay: Trans-well matrigel cell invasion assay, melanoma cells; format: cell-based; settings: 1 μM for 72 hours
Method: Cancer cells were serum-starved in 0.2% FBS DMEM-based media for 12 hours. Trans-well invasion chambers (354480, BD Biosciences, Bedford, Mass.) were pre-equilibrated prior to beginning the assay by adding 0.5 mL of starvation media to the top and bottom chambers. After 30 minutes, the media in the top chamber was removed, and 0.5 mL of media containing 1×10^5 cancer cells was added into each matrigel-coated trans-well insert and incubated at 37° C. for 24 hours. For neutralization antibody and/or recombinant protein experiments, antibody/recombinant protein was added to each well at the start of the assay at the following concentrations as indicated in the figures: 5-40 μg/mL anti-ApoE 1D7 (Heart Institute, University of Ottawa), 5-40 μg/mL anti-IgG (AB-108-C, R&D Systems, Minneapolis, Minn.), 100 μM recombinant human ApoE3 (4696, BioVision, Mountain View, Calif.), and 100 μM BSA (A2153, Sigma-Aldrich). Upon completion of the assay, matrigel-coated inserts were washed with PBS, the cells at the top side of each insert were scraped off, and the inserts were fixed in 4% paraformaldehyde for 15 minutes. The inserts were then cut out and mounted onto slides using VectaShield mounting medium containing DAPI (H-1000, Vector Laboratories, Burlingame, Calif.). The basal side of each insert was imaged using an inverted fluorescence microscope (Zeiss Axiovert 40 CFL) at 5× magnification, taking three representative images for each insert. The number of invaded cells was quantified using ImageJ (NIH).
The cell invasion assay was performed as previously described in detail (Pencheva et al., 2012) using a trans-well matrigel invasion chamber system (354480, BD Biosciences). In brief, various melanoma cells were cultured in the presence of DMSO, GW3965, T0901317, or Bexarotene at 1 μM for 56 hours, after which melanoma cells were switched to starvation media (0.2% FBS) for 16 hours in the presence of each drug. Following starvation, cells were seeded into matrigel-coated trans-well inserts, and the invasion assay was allowed to proceed for 24 hours at 37° C. For ApoE antibody neutralization experiments, 40 μg/mL 1D7 anti-ApoE blocking antibody (Heart Institute, University of Ottawa, Ottawa, Canada) or 40 t g/mL anti-IgG control antibody (AB-108-C, R&D Systems, Minneapolis, Minn.) was added to each trans-well insert at the start of the assay.
The cells were then serum starved for 16 hours in 0.2% FBS media in the presence of each corresponding drug or DMSO. Following serum starvation, the cells were subjected to the trans-well invasion assay using a matrigel invasion chamber system (354480, BD Biosciences). Invasion chambers were pre-equilibrated prior to the assay by adding 0.5 mL of starvation media to the top and bottom wells. Meanwhile, cancer cells were trypsinized and viable cells were counted using trypan blue. Cancer cells were then resuspended at a concentration of 2×10^5 cells/1 mL starvation media, and 0.5 mL of cell suspension, containing 1×10^5 cells, was seeded into each trans-well. The invasion assay was allowed to proceed for 24 hours at 37° C. […] Following fixation, the inserts were washed in PBS, cut out, and mounted onto slides using VectaShield mounting medium containing DAPI nuclear stain (H-1000, Vector Laboratories). The basal side of each insert was imaged using an inverted fluorescence microscope (Zeiss Axiovert 40 CFL) at 5× magnification, and the number of DAPI-positive cells was quantified using ImageJ.

[2] = system: B16F10 mouse melanoma cells; assay: Subcutaneous B16F10 tumor growth in C57BL/6 mice; settings: in chow: WO-2010-0138598 Ex. 9 10 or 100 mg/kg/day, SB742881 100 mg/kg/day
Method: Animals were palpated weekly for tumor formation, after which sizeable tumors were measured twice a week. Tumor volume was calculated as (small diameter)^2×(large diameter)/2.

[3] = system: B16F10 parental and DTIC-resistant cells; assay: Tumor growth by DTIC-sensitive and DTIC-resistant B16F10 cells; format: in vivo, mouse; settings: dacarbazine 50 mg/kg, i.p., daily
Method: First, the cells were treated with 500 μg/mL DTIC for one week. Following this initial DTIC treatment, the remaining (˜10%) viable cells were allowed to recover for one week, after which 750 rag/mL of DTIC was added to the cell media for 5 days. Subsequent to this high-dose treatment, the cells were allowed to recover in the presence of low-dose DTIC (100 jag/mL) for one week. The cells were then continuously cultured in cell media containing 200 rag/mL DTIC for at least one month prior to grafting the cells into mice. DTIC was added to fresh cancer cell media every 3 days.

[4] = system: human umbilical vein endothelial cells (HUVEC's); assay: Endothelial recruitment assay (HUVEC migration towards melanoma cells); format: cell-based; settings: MeWo, HT-144, SK-Mel-2, SK-Mel-334.2; 1 μM for 72 hours
Method: 5×10^4 cancer cells were seeded into 24-well plates approximately 24 hours prior to the start of the assay. HUVEC's were grown to 80% confluency and serum starved in EGM-2 media supplemented with 0.2% FBS for 16 hours. HUVEC's were then pulsed with Cell Tracker Red CMTPX dye (C34552, Invitrogen) for 45 minutes. Meanwhile, cancer cells were washed with PBS, 0.5 mL of 0.2% FBS EGM-2 media was added to each well, and a 3.0 μm HTS Fluoroblock insert (351151, BD Falcon, San Jose, Calif.) was placed into each well. 1×10^5 HUVEC's, resuspended in 0.5 mL of starvation media, were seeded into each trans-well insert, and the recruitment assay was allowed to proceed for 16-18 hours at 37° C. For neutralization antibody and/or recombinant protein experiments, antibody/protein was then added to each well at the appropriate concentration as indicated in the figures: 40 μg/mL anti-ApoE 1D7, 40 μg/mL anti-IgG, 100 μM rhApoE3, and 100 μM BSA. Upon completion of the assay, the inserts were processed and analyzed as described for the matrigel invasion assay above (See Matrigel Invasion Assay).
The endothelial recruitment assay was carried out as previously described (Pencheva et al., 2012; Png et al., 2012). Melanoma cells were treated with DMSO, GW3965, T0901317, or Bexarotene at 1 μM for 56 hours, after which 5×10^4 cells were seeded in a 24-well plate in the presence of each drug and allowed to attach for 16 hours prior to starting the assay. HUVEC cells were serum-starved overnight in EGM-2 media containing 0.2% FBS. The following day, 1×10^5 HUVEC cells were seeded into a 3.0 μm HTS Fluoroblock trans-well migration insert (351151, BD Falcon, San Jose, Calif.) fitted into each well containing cancer cells at the bottom. The HUVEC cells were allowed to migrate towards the cancer cells for 20 hours at 37° C., after which the inserts were processed as previously described (Pencheva et al., 2012). For ApoE antibody neutralization experiments, 40 μg/mL 1D7 anti-ApoE blocking antibody (Heart Institute, University of Ottawa, Ottawa, Canada) or 40 μg/mL anti-IgG control antibody (AB-108-C, R&D Systems, Minneapolis, Minn.) was added to each trans-well insert at the start of the assay.
Subsequently, 5×10^4 cancer cells were seeded into 24-well plates in the presence of each drug or DMSO and allowed to attach for 16 hours prior to starting the assay. Human umbilical vein endothelial cells (HUVEC cells) were serum-starved in 0.2% FBS-containing media overnight. The following day, 1×10^5 HUVEC cells were seeded into a 3.0 μm HTS Fluoroblock insert (351151, BD Falcon) fitted into each well containing the cancer cells at the bottom. The HUVEC cells were allowed to migrate towards the cancer cells for 20 hours, after which the inserts were washed in PBS, fixed in 4% PFA, labeled with DAPI, and mounted on slides. The basal side of each insert was imaged using an inverted fluorescence microscope (Zeiss Axiovert 40 CFL) at 5× magnification, and the number of DAPI-positive cells was quantified using ImageJ.

[5] = system: melanoma cells (MeWo, MeWo-LM2, HT-144, SK-Mel-334.2) and endothelial cells; assay: In vitro cell proliferation, viability and serum starvation assays; format: cell-based, human; settings: MeWo, HT-144, SK-Mel-334.2; 1 μM, 5 days
Method: To determine the effects of miR-199a or miR-1908 over-expression and combinatorial LNA-induced miRNA inhibition on cell proliferation, 2.5×10^4 cells were seeded in triplicate in 6-well plates, and viable cells were counted after 5 days. […] Viable cells were counted after 8, 24, 48, 72, and 120 hours.
The number of viable cells was counter after 8, 16, and 24 hours.
To determine the effects of GW3965, T0901317, and Bexarotene on in vitro cell growth, 2.5×10^4 melanoma cells were seeded in triplicate in 6-well plates and cultured in the presence of DMSO, GW3965, T0901317, or Bexarotene at 1 μM each. After 5 days, the number of viable and dead cells was counted using the trypan blue dye (72-57-1, Sigma-Aldrich), which selectively labels dead cells.

## CC(C)(O)c1cn(-c2ccc(-c3cc(F)c(CO)c(S(C)(=O)=O)c3)cc2F)c(C(C)(C)c2c(Cl)cccc2Cl)n1 [Compound 12]
ApoE; listed as WO-2010-0138598 Ex. 9
  ApoE expression induction: varied degrees of ApoE expression induction; also recorded: potently induce
[1]; MeWo cells, relative to lower potency LXR agonists
  inhibition of in vitro cancer progression phenotypes (cell invasion, endothelial recruitment): more effective
[2]
  melanoma primary tumor growth: significantly inhibited

## CC(C)(O)c1cn(-c2ccc(-c3cccc(S(C)(=O)=O)c3)cc2)c(C(C)(C)c2ccccc2Cl)n1 [Compound 38]
ApoE
  ApoE expression induction: varied degrees of ApoE expression induction

## CN(C)/N=N/c1[nH]cnc1C(N)=O [dacarbazine]
[3]
  growth of the DTIC-sensitive parental line: significantly suppressed
  tumor growth by B16F10 DTIC-resistant cells: did not affect

## C=C(c1ccc(C(=O)O)cc1)c1cc2c(cc1C)C(C)(C)CCC2(C)C [bexarotene]
[1]; MeWo, HT-144, SK-Mel-2, SK-Mel-334.2
  ability of melanoma cells to invade through matrigel: suppressed invasion only in half of the melanoma lines tested
[4]
  ability of melanoma cells to recruit endothelial cells: did not significantly affect
[5]
  cell proliferation or cell viability rates: did not affect

## Fc1ccc(-c2c3cccc(C(F)(F)F)c3nn2Cc2ccc(F)cc2Cl)cc1 [LXR-623 3]
ApoE
  ApoE expression induction: varied degrees of ApoE expression induction
